Common to all, as to format: cell-based
The target of experiment [1] is T1, EGFR L858R (Ba/F3 cells) (Homo sapiens, UniProt P00533, L858R).
T1 construct: expressed in transfected cells; host or cells: Ba/F3 (murine pro-B cells), retroviral transduction, puromycin selection, IL3-independent pool
As to the kind of experiment: Inhibitor activity on EGFR-dependent cell growth (CellTiter-Glo, 72 h), Ba/F3 EGFR L858R. The following applies: read-out: BaF3 L858R IC50. Summed up:
(§1)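 Ba/F3, retrovirally transduced, puromycin-selected, grown without IL3; cells/well: L858R 400, L858R/C797S 600, exon 19del 800, FQEA 800. Cpds from 10 mM DMSO stock, 3-fold ×10 dilution, 120 nL per well; 72 h. CTG readout; IC50 via Hill equation.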
Background: Cellular ATP, detected with luciferase, serves as a proxy for viable cell number.

Experiment [2] addresses T2, EGFR exon 19del (Ba/F3 cells) (Homo sapiens, UniProt P00533). The experiment is described as follows: Inhibitor activity on EGFR-dependent cell growth (CellTiter-Glo, 72 h), Ba/F3 EGFR exon 19del. The following applies: Ba/F3 EGFR exon 19del cell growth, read-out: BaF3 Del19 IC50. Summed up:
as §1

The target in experiment [3] is T3, EGFR L858R/C797S (Ba/F3 cells) (Homo sapiens, UniProt P00533, C797S/L858R).
T3 construct: expressed in transfected cells; host or cells: Ba/F3 (murine pro-B cells), retroviral transduction, puromycin selection, IL3-independent pool
T3 sequence (P00533 25-1210 C797S/L858R): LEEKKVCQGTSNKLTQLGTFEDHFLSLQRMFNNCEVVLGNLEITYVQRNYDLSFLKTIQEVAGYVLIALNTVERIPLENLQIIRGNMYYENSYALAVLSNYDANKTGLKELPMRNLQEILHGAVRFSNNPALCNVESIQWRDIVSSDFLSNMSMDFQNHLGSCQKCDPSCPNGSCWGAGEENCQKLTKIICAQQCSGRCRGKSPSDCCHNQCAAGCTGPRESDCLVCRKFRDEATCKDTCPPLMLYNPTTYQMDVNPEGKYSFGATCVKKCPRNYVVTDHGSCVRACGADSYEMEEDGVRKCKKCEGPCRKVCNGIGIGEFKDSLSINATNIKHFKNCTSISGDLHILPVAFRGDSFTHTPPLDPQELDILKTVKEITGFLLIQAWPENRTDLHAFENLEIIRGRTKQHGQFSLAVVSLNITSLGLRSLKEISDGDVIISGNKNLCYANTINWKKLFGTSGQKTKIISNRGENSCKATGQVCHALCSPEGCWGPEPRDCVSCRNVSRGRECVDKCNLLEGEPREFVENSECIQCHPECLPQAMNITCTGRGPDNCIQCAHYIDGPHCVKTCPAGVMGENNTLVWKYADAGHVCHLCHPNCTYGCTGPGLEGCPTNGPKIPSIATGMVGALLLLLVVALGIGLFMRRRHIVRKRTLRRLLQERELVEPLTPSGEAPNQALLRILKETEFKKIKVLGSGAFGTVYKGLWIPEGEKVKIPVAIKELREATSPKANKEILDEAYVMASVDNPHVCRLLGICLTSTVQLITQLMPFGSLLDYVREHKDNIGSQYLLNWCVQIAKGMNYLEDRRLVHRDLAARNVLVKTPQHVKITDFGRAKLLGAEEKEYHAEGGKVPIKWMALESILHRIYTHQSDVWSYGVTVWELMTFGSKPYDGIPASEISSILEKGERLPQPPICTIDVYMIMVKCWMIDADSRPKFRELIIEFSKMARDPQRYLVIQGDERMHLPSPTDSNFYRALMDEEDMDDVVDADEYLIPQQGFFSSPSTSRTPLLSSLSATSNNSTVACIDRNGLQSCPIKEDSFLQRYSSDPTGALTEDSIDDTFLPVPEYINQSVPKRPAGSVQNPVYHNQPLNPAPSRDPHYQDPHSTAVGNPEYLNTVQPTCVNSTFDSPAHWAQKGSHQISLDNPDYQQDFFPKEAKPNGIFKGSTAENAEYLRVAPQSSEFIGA
As to the kind of experiment: Inhibitor activity on EGFR-dependent cell growth (CellTiter-Glo, 72 h), Ba/F3 EGFR L858R/C797S. The following applies: read-out: BaF3 L858R/C797S IC50. Summed up:
as §1

In experiment [4] the target is T1, EGFR L858R (Ba/F3 cells). The experiment is described as follows: Inhibitor activity on EGFR phosphorylation (pEGFR AlphaLISA, 2 h), Ba/F3 EGFR L858R. Summed up: (§2)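 Ba/F3 cells made IL3-independent by retroviral EGFR mutant expression (puromycin-selected, pooled) and CUTO14 cells were seeded at 50K or 12.5K cells/well, respectively. They were treated 2 h with a 3-fold, 10-point compound series, lysed, and phospho-EGFR was read by AlphaLISA to give IC50.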

Experiment [5] deals with T2, EGFR exon 19del (Ba/F3 cells). As to the kind of experiment: Inhibitor activity on EGFR phosphorylation (pEGFR AlphaLISA, 2 h), Ba/F3 EGFR exon 19del. The following applies: read-out: Del19 IC50 (pEGFR). A digest of the protocol:
as §2
For orientation: Bead proximity is the source of the signal in Alpha formats.

In experiment [6] the target is T3, EGFR L858R/C797S (Ba/F3 cells). As to the kind of experiment: Inhibitor activity on EGFR phosphorylation (pEGFR AlphaLISA, 2 h), Ba/F3 EGFR L858R/C797S. Summed up: as §2
The target of a further experiment is T4, EGFR WT (Ba/F3 cells) (Homo sapiens, UniProt P00533).
T4 construct: expressed in transfected cells; host or cells: Ba/F3 (murine pro-B cells), retroviral transduction, puromycin selection, maintained with EGF
T4 sequence (P00533 25-1210): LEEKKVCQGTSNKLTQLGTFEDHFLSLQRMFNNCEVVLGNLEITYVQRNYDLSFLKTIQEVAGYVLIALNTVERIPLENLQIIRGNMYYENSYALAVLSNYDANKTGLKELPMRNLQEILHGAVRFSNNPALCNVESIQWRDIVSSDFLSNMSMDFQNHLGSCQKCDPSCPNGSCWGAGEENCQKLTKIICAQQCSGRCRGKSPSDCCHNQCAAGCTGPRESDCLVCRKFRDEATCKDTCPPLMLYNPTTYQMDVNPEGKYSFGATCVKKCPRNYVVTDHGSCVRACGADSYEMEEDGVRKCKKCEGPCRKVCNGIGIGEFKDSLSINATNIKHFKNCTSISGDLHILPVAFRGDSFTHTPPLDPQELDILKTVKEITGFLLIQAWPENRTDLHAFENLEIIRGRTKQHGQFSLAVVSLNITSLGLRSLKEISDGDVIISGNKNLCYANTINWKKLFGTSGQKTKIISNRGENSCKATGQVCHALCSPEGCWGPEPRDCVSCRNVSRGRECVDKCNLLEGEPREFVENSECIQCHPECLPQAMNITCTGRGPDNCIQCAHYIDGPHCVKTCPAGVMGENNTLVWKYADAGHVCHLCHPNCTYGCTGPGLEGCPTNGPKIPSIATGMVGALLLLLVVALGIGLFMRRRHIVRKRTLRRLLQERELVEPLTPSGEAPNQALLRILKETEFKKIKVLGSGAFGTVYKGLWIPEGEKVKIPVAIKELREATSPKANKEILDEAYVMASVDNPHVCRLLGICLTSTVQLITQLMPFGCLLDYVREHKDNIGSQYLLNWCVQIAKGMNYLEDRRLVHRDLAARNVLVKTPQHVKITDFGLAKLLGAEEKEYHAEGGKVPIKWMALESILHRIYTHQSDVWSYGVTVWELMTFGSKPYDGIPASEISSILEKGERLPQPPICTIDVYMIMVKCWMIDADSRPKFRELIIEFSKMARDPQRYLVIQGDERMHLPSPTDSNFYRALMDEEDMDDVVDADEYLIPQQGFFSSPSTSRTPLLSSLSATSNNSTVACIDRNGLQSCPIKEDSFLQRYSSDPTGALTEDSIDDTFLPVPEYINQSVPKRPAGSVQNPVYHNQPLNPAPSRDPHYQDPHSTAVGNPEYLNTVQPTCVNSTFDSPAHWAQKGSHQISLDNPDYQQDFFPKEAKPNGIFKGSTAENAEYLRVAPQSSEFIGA
As to the kind of experiment: Inhibitor activity on EGFR-dependent cell growth (CellTiter-Glo, 72 h), Ba/F3 EGFR WT. The following applies: read-out: BaF3 WT IC50. A digest of the protocol: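 This growth assay used Ba/F3 cells that depend on wild-type EGFR and are kept in EGF without IL3. Compounds were made up as 10 mM DMSO stocks and diluted 3-fold over 10 points. 120 nL went onto 600 cells/well. After 72 hours, 40 μL CellTiter-Glo was added and luminescence read on EnVision after 30 min.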

Experiment [7] deals with T5, EGFR exon 20 NPG Ins D770_N771 (Ba/F3 cells) (Homo sapiens, UniProt P00533, INS770NPG).
T5 construct: expressed in transfected cells; host or cells: Ba/F3 (murine pro-B cells), retroviral transduction, puromycin selection, IL3-independent pool
The experiment is described as follows: Inhibitor activity on EGFR-dependent cell growth (CellTiter-Glo, 72 h), Ba/F3 EGFR exon 20 NPG Ins. The following applies: read-out: BaF3 NPG IC50. Summed up: (§3)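 IC50s derive from a sigmoidal dose–response fit of CellTiter-Glo signal. The signal was normalised between […]-treated cells and cell-free medium. Ba/F3 mutant-EGFR cells, seeded at 400–800/well depending on the line, had 72 h of exposure to a 10-point, 3-fold compound series.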

Experiment [8] addresses T6, EGFR exon 20 ASV Ins V769_D770 (Ba/F3 cells) (Homo sapiens, UniProt P00533, INS769ASV).
T6 construct: expressed in transfected cells; host or cells: Ba/F3 (murine pro-B cells), retroviral transduction, puromycin selection, IL3-independent pool
The experiment is described as follows: Inhibitor activity on EGFR-dependent cell growth (CellTiter-Glo, 72 h), Ba/F3 EGFR exon 20 ASV Ins. The following applies: read-out: BaF3 ASV IC50. Summed up:
as §3

Experiment [9] concerns the target T7, EGFR exon 20 SVD Ins D770_N771 (Ba/F3 cells) (Homo sapiens, UniProt P00533, INS770SVD).
T7 construct: expressed in transfected cells; host or cells: Ba/F3 (murine pro-B cells), retroviral transduction, puromycin selection, IL3-independent pool
As to the kind of experiment: Inhibitor activity on EGFR-dependent cell growth (CellTiter-Glo, 72 h), Ba/F3 EGFR exon 20 SVD Ins. The following applies: read-out: BaF3 SVD IC50. Summed up:
as §3

Experiment [10] addresses T8, EGFR exon 20 FQEA Ins A763_V764 (Ba/F3 cells) (Homo sapiens, UniProt P00533, INS763FQEA).
T8 construct: expressed in transfected cells; host or cells: Ba/F3 (murine pro-B cells), retroviral transduction, puromycin selection, IL3-independent pool
As to the kind of experiment: Inhibitor activity on EGFR-dependent cell growth (CellTiter-Glo, 72 h), Ba/F3 EGFR exon 20 FQEA Ins. The following applies: read-out: BaF3 FQEA IC50. Summed up:
as §1

A further experiment addresses EGFR (CUTO14 cells) (Homo sapiens, UniProt P00533). The experiment is described as follows: Inhibitor activity on EGFR phosphorylation (pEGFR AlphaLISA, 2 h), CUTO14 cells. Summed up:
as §2

Bounds are passed on as bounds.

T6 sequence (P00533 with tags, fused parts or gaps INS769ASV): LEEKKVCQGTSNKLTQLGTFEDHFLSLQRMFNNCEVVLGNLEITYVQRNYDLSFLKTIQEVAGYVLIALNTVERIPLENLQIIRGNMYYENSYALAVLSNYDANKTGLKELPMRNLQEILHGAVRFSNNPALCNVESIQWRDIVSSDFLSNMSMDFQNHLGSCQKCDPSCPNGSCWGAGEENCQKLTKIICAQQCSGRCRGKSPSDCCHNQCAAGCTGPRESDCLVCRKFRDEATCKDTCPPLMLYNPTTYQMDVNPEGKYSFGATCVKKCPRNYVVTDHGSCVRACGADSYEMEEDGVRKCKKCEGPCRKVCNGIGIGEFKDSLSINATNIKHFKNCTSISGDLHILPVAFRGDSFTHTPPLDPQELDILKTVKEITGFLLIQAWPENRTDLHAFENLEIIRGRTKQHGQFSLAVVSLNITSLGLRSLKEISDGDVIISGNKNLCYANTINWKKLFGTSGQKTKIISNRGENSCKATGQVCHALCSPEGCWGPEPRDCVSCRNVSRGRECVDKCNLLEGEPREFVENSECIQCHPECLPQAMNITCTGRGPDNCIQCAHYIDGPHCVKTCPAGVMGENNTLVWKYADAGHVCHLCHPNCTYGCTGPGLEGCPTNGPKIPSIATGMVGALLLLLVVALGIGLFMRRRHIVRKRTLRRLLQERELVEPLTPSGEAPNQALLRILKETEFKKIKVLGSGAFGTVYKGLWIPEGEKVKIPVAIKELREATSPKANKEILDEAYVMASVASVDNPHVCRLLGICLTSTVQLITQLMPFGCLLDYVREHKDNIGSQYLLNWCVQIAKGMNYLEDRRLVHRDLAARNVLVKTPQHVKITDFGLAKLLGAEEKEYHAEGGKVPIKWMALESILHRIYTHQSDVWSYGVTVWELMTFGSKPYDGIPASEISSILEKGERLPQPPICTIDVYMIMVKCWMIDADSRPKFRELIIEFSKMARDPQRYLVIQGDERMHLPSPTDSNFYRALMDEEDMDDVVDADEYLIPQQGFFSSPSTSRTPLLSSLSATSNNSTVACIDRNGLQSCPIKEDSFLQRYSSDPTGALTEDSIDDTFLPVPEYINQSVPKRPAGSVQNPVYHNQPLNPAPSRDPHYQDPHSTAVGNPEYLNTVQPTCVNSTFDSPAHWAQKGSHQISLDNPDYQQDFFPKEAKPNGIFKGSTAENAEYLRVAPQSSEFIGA
T7 sequence (P00533 with tags, fused parts or gaps INS770SVD): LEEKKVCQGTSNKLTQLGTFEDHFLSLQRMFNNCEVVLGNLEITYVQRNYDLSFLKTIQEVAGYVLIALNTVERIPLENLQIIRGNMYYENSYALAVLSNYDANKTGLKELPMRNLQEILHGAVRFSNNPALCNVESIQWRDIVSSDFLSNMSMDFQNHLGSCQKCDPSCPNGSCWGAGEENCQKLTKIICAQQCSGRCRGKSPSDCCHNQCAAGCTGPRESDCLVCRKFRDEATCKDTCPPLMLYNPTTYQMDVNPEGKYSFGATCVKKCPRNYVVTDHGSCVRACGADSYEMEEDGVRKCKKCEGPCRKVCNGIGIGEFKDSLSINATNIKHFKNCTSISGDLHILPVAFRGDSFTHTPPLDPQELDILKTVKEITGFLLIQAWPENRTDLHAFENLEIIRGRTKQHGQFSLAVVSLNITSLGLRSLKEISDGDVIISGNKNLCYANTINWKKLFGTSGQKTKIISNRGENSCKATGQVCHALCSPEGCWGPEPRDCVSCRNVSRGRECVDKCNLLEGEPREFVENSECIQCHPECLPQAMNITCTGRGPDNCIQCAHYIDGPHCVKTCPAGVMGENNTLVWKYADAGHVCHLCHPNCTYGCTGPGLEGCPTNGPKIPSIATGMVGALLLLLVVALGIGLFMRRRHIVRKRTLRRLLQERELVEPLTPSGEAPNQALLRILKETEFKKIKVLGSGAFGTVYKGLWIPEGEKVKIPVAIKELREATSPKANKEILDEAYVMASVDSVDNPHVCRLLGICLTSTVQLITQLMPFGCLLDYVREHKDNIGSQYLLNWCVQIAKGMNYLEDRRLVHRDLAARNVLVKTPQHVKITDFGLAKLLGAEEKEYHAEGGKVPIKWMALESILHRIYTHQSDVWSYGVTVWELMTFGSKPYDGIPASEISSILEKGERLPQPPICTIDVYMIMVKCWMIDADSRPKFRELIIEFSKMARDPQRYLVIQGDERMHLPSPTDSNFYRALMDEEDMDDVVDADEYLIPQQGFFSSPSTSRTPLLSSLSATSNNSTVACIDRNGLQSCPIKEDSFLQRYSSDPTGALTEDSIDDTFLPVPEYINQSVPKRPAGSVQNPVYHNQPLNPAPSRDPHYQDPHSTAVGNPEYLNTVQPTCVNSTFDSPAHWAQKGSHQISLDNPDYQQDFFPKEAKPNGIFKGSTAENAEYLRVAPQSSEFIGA

Take `COc1c(F)cccc1Nc1c(-c2ccnc(C)n2)[nH]c2c1C(=O)NCC2C[C@H]1COCCO1` (single isomer, unassigned) [Compound 606]: the IC50 (on EGFR L858R (Ba/F3 cells) [1]; in experiment [2]; in experiment [3]; on EGFR L858R (Ba/F3 cells) [4]; in experiment [5]; in [6]) was below 100 nM each time. For the same molecule, the IC50 at EGFR WT (Ba/F3 cells) is 100 to 1000 nM; in experiment [7] it was below 100 nM; in [8], below 100 nM; in [9], below 100 nM; in [10], below 100 nM; on EGFR (CUTO14 cells) it was below 100 nM.
In the case of `COc1c(F)cccc1Nc1c(-c2ccnc(C)n2)[nH]c2c1C(=O)NCC2C[C@@H]1COCCO1` (single isomer, unassigned) [Compound 604], the IC50 (on EGFR L858R (Ba/F3 cells) [1]; in experiment [2]; in experiment [3]; at EGFR L858R (Ba/F3 cells) [4]; in experiment [5]; in experiment [6]) was below 100 nM in each case. The IC50 is 100 to 1000 nM at EGFR WT (Ba/F3 cells); below 100 nM in experiment [7]; below 100 nM in experiment [8]; below 100 nM in experiment [9]; below 100 nM in experiment [10]; below 100 nM at EGFR (CUTO14 cells).
Regarding `COc1c(Cl)cccc1Nc1c(-c2ccncn2)[nH]c2c1C(=O)NCC2C[C@H]1COCCO1` (single isomer, unassigned) [Compound 527, (7R*)-3-[(3-chloro-2-methoxyphenyl)amino]-7-[(2S)-1,4-dioxan-2-ylmethyl]-2-(pyrimidin-4-yl)-1H,5H,6H,7H-pyrrolo[3,2-c]pyridin-4-one], the IC50 (on EGFR L858R (Ba/F3 cells) [1]; in experiment [2]; in [3]; against EGFR L858R (Ba/F3 cells) [4]; in [5]; in experiment [6]) was below 100 nM in each case. The IC50 on EGFR WT (Ba/F3 cells) was 100 to 1000 nM; in [7], below 100 nM; at EGFR (CUTO14 cells) it was below 100 nM.
`COc1c(Cl)cccc1Nc1c(-c2ccncn2)[nH]c2c1C(=O)NC[C@H]2C[C@@H]1COCCO1` [Compound 568, (7R)-3-[(3-chloro-2-methoxyphenyl)amino]-7-[(2R)-1,4-dioxan-2-ylmethyl]-2-(pyrimidin-4-yl)-1H,5H,6H,7H-pyrrolo[3,2-c]pyridin-4-one]: the IC50 (on EGFR L858R (Ba/F3 cells) [1]; in [2]; in [3]; at EGFR L858R (Ba/F3 cells) [4]; in experiment [5]; in [6]) was below 100 nM in each case. For the same molecule, the IC50 was 100 to 1000 nM on EGFR WT (Ba/F3 cells), below 100 nM in experiment [7], below 100 nM in experiment [10] and below 100 nM on EGFR (CUTO14 cells).
`COc1c(Cl)cccc1Nc1c(-c2ccncc2F)[nH]c2c1C(=O)NC[C@]21CCN(CC(F)F)C1` [compound 821]: the IC50 (on EGFR L858R (Ba/F3 cells) [1]; in experiment [2]; in experiment [3]; on EGFR L858R (Ba/F3 cells) [4]; in [5]; in experiment [6]) was below 100 nM in each case. The IC50 on EGFR WT (Ba/F3 cells) is 100 to 1000 nM; in [7], below 100 nM; in [8], below 100 nM; in [9], below 100 nM; in [10], below 100 nM.
As to `COc1c(Cl)cccc1Nc1c(-c2ccnc3ccc(OC4(C)COC4)nc23)[nH]c2c1C(=O)NCC2` [Compound 787, 3-[(3-chloro-2-methoxyphenyl)amino]-2-[6-[(3-methyloxetan-3-yl)oxy]-1,5-naphthyridin-4-yl]-1H,5H,6H,7H-pyrrolo[3,2-c] pyridin-4-one], the IC50 (at EGFR L858R (Ba/F3 cells) [1]; in experiment [2]; in experiment [3]; at EGFR L858R (Ba/F3 cells) [4]; in [5]; in experiment [6]) was below 100 nM in each case. In addition, the IC50 (on EGFR WT (Ba/F3 cells); in [7]; in experiment [8]; in experiment [9]; in experiment [10]) was below 100 nM throughout.
On to `COc1c(F)cccc1Nc1c(-c2ccnc3ccc(OC4(C)COC4)nc23)[nH]c2c1C(=O)NCC2` [Compound 788, 3-[(3-fluoro-2-methoxyphenyl)amino]-2-[6-[(3-methyloxetan-3-yl)oxy]-1,5-naphthyridin-4-yl]-1H,5H,6H,7H-pyrrolo[3,2-c]pyridin-4-one], for which the IC50 (at EGFR L858R (Ba/F3 cells) [1]; in experiment [2]; in experiment [3]; against EGFR L858R (Ba/F3 cells) [4]; in experiment [5]; in experiment [6]) was below 100 nM in each case. Moreover, the IC50 (at EGFR WT (Ba/F3 cells); in [7]; in experiment [8]; in [9]; in [10]) was below 100 nM throughout.
As to `COc1c(F)cccc1Nc1c(-c2ccncn2)[nH]c2c1C(=O)NC[C@H]2C[C@@H]1COCCO1` [Compound 569, (7R)-7-[(2R)-1,4-dioxan-2-ylmethyl]-3-[(3-fluoro-2-methoxyphenyl)amino]-2-(pyrimidin-4-yl)-1H,5H,6H,7H-pyrrolo[3,2-c]pyridin-4-one], the IC50 (on EGFR L858R (Ba/F3 cells) [1]; in experiment [2]; in experiment [3]; against EGFR L858R (Ba/F3 cells) [4]; in experiment [5]; in [6]) was below 100 nM throughout. Moreover, the IC50 on EGFR WT (Ba/F3 cells) is 100 to 1000 nM; in experiment [7], below 100 nM; in [8], below 100 nM; in [9], below 100 nM; in [10], below 100 nM; on EGFR (CUTO14 cells) it was below 100 nM.

The record behind these values is patent publication US20240101576A1, “HETEROCYCLIC INHIBITORS OF EGFR AND/OR HER2, FOR USE IN THE TREATMENT OF CANCER” (Scorpion Therapeutics, Inc., priority 2020, published 2024).
